Patent publication US20160367490A1, “MULTI-LAYER TOPICALLY-APPLIED ARTICLE FOR PROVIDING A BENEFIT TO SKIN” (Johnson & Johnson Consumer Inc., priority 2015, published 2016)

Test: Franz cell skin delivery of hexylresorcinol (HPLC)
Format: in vitro ADME
Conditions: Franz cells, n=4, FIG. 3
From the text: Wash Franz cells with ethanol 70%, water and receptor solution (1×PBS, phosphate buffered saline).
Measure skin thickness and electrical resistance
Mount the tissue on Franz cells (n=4).
Once equilibrated, make sure there isn't excess moisture on the surface of the tissue (SC) by dabbing the skin surface with Kimwipes.
Carefully remove the backing on the film and place it on the donor area with a light pressure (5 times tap on skin surface); the adhesive side is in touch with skin.
Mount the donor chamber and leave it overnight
Next morning (After 16 h time point), take a sample (300 uL) (Oh), replace with fresh 1×PBS.
Add 100 uL 1×PBS to the donor chamber, let it sit for 30 sec, remove it using a plastic pipet moving around the edge of the donor. Repeat this cycle 5 times. Pool these 1×PBS solution and analyze by HPLC
Remove the donor chamber with the tissue still mounted on the Franz cells. Use a cotton swab to take out all the remained liquid on skin. Extract drug from this swab by shaking at 100 rpm overnight in 2 mL ethanol: Water (50:50 v/v).
Put the donor chamber back. After every 2 hours (2,4,6 h), take sample (300 uL) and replace with fresh receptor solution.
At 22 h, remove the donor chamber, remove skin from cells, put skin on sheets of paper and do tape stripping with 2 tapes to remove the excessive drug on skin surface. Put these 2 tapes in a well in 6-well plate for extraction. […]

With CCCCCCCC/C=C\CCCCCCCC(=O)OCC(O)CO (stereo not shown) [Monumuls, glycerol oleate] the “delivery of the hexylresorcinol compared to Example 16C (no emulsifier)” value was “greatly enhanced”.
